Drawing on US20210347709A1, “RADIOFLUORINATED GPC3-BINDING PEPTIDES FOR PET IMAGING OF HEPATOCELLULAR CARCINOMA” (University of Southern California, priority 2020, published 2021), this text covers viability and Kd for two compounds.

Data set [1] can be described thus: In vitro biocompatibility (cell counting Kit-8 cell viability). Format: cell-based. The note with it: human, HepG2 cells, all concentrations 120 to 840 μg/ml. The procedure: In Vitro Biocompatibility. A colorimetric assay was utilized to determine cell viability after treating GPC3 positive HepG2 cells with the GP2076 or GP2633 peptide. The assay was carried out according to the instruction of the manufacturer. In brief, HepG2 cells were seeded at a density of 1×10^4 cells/well in a 96-well plate. After the incubation of the GP2076 or GP2633 peptide at various concentrations (0, 120, 240, 360, 480, 600, 720, and 840 μg/ml) with HepG2 cells for 24 h, the HepG2 cells were examined using the cell counting Kit-8 (KeyGen Biotech, Nanjing, China). The absorbance at 450 nm of all the wells in the 96-well microplate was recorded on a microplate reader (BIOTEK ELX800, USA). The experiment was performed in quadruplicate.
(Formazan colour is commonly taken as a measure of viable cells.)

For the next data set, the target named is T1, GPC3 (Homo sapiens, UniProt P51654).
T1 construct: purchased Novoprotein, China
In words: Binding assay by surface plasmon resonance (SPR). The note with it: GPC3 protein immobilized on 3D Dextran chip. The procedure: Binding Assay. The binding affinity of the GP2076 or GP2633 peptide for GPC3 was determined using surface plasmon resonance (SPR) measurements (PlexArray HT A100, Plexera, USA). In brief, after the GPC3 protein (Novoprotein, China) was immobilized on a 3D Dextran chip, the GP2076 or GP2633 peptide flowed at increasing concentrations (400 nM and 800 nM). The results were analyzed by PlexeraDE software.
(In general: In SPR one partner is held on a chip, and binding of the other changes the refractive index at the surface.)

Each structure is given as a SMILES string. pKd: −log10 of the molar value. Some results are limits rather than exact numbers.

T1 sequence (P51654 25-554): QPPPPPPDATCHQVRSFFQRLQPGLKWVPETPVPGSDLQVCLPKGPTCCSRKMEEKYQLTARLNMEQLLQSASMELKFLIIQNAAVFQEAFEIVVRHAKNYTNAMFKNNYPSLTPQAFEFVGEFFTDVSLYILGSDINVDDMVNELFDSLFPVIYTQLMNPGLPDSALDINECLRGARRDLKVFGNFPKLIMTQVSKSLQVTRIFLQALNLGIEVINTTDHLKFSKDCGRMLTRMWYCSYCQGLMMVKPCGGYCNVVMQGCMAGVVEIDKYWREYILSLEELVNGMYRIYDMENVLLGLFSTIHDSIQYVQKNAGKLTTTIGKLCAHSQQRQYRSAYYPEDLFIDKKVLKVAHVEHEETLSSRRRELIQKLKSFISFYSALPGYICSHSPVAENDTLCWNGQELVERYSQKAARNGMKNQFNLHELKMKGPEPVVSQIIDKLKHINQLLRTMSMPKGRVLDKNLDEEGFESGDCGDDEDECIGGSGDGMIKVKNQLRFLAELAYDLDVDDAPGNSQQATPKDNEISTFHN

In data set [1], `CC(C)C[C@H](NC(=O)[C@H](CCCNC(=N)N)NC(=S)Nc1ccc(CC2CN(CC(=O)O)CCN(CC(=O)O)CCN2CC(=O)O)cc1)C(=O)N[C@@H](CC(N)=O)C(=O)N[C@H](C(=O)NCC(=O)NCC(=O)N[C@H](C(=O)N[C@@H](Cc1ccc(O)cc1)C(=O)N[C@@H](Cc1ccccc1)C(=O)N[C@@H](CC(C)C)C(=O)N[C@H](C(=O)N[C@H](C(=O)N[C@@H](CCCNC(=N)N)C(=O)N[C@@H](CCC(N)=O)C(=O)O)[C@@H](C)O)[C@@H](C)O)[C@@H](C)O)C(C)C` (stereo partly shown) [GP2076] registered a viability at 24 h of more than 90%. Further, the pKd at GPC3 was 7.00.
The like results for `CC(C)C[C@H](NC(=O)[C@H](CCCNC(=N)N)NC(=O)[C@H](CC(N)=O)NC(=O)[C@H](CC(=O)O)NC(=O)[C@H](CCCNC(=N)N)NC(=O)CNC(=O)CNC(=O)CNC(=S)Nc1ccc(CC2CN(CC(=O)O)CCN(CC(=O)O)CCN2CC(=O)O)cc1)C(=O)N[C@@H](CC(N)=O)C(=O)N[C@H](C(=O)NCC(=O)NCC(=O)N[C@H](C(=O)N[C@@H](Cc1ccc(O)cc1)C(=O)N[C@@H](Cc1ccccc1)C(=O)N[C@@H](CC(C)C)C(=O)N[C@H](C(=O)N[C@H](C(=O)N[C@@H](CCCNC(=N)N)C(=O)N[C@@H](CCC(N)=O)C(=O)O)[C@@H](C)O)[C@@H](C)O)[C@@H](C)O)C(C)C` (stereo partly shown) [GP2633] were, in that order, more than 90% and 7.20.

As usually defined, the viability is a per cent measure of how many cells are alive, often set against a control. Read a low viability as a greater loss of cells. A word on the pKd: it is the Kd on a negative log10 scale, so that one unit is a factor of ten. A lower pKd goes with a high Kd.
